Reference: article PMC9814550, “Exo-selective intermolecular Diels–Alder reaction by PyrI4 and AbnU on non-natural substrates” (Communications Chemistry, 2021)
Where two headings read alike, the source gives them in different places.

Assays:
AbnU = molecular target: T1, AbnU (Parafrankia colletiae, UniProt A0A1S1R073); experiment: tryptophan fluorescence quenching (W114); type: binding
T1 construct: gene CC117_14200; N-terminal poly-His tag, pET28a(+), codon-optimised synthetic gene, E. coli; dimer
T1 sequence (A0A1S1R073 entry or part of it): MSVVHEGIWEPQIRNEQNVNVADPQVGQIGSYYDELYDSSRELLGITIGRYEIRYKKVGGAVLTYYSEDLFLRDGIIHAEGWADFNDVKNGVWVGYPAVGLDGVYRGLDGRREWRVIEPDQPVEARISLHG

PyrI4 = molecular target: T2, PyrI4 (Streptomyces rugosporus, UniProt K7QVW7, E65A); experiment: LC-SRM of product 3a; type: biochemical; settings: co-substrate 2
T2 construct: full length, N-terminal poly-His tag, pET28a(+), codon-optimised synthetic gene, E. coli
T2 sequence (K7QVW7 whole entry E65A): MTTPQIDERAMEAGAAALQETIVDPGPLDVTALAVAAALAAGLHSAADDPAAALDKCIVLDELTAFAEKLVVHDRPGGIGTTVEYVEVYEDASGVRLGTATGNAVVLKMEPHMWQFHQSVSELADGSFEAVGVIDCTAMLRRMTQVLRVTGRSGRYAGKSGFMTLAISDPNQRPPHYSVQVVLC

Row | Kd (AbnU; read-out: KD) [µM] | Structure (SMILES) | LC-SRM of product 3a (PyrI4) | Kd (AbnU) [µM]
1 | 1010 ± 205 | COC(=O)c1ccc(COC(=O)NC2C=CCCC2C(=O)N(C)C)cc1 (mixture of isomers) [3a] | – | –
2 | 729 ± 117 | C=C/C=C/NC(=O)OCc1ccc(C(=O)OC)cc1 [1a, diene 1a] | Stereoselectivity is further compromised with E65A mutant | –
3 | – | C=CC(=O)N(C)C [compound 2, N,N-dimethylacrylamide] | – | 6320 ± 280
